For 29 molecules, DC50 results are on record in US11691972B2, “Compounds for targeted degradation of BRD9” (C4 Therapeutics, Inc., priority 2020, dated 2023).

The assay has as its target T1, BRD9 (Homo sapiens, UniProt Q9H8M2).
T1 sequence (Q9H8M2 1-597): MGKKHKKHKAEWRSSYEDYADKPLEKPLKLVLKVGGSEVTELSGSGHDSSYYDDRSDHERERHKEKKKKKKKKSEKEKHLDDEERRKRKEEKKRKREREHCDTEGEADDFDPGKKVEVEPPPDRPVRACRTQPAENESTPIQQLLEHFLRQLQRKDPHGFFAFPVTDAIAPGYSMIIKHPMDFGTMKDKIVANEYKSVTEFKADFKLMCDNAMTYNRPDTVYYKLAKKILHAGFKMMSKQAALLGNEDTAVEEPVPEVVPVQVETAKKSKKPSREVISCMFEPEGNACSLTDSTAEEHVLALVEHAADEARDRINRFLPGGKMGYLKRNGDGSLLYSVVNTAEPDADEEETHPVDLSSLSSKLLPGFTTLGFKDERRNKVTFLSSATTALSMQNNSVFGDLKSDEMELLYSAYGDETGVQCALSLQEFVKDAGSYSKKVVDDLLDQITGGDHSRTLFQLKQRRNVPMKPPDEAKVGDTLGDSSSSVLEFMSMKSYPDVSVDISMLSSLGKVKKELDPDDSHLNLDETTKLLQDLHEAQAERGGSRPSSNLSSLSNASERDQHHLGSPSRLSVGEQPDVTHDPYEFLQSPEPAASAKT
The assay is described as follows: HiBiT BRD9 degradation assay in 293T.166 (BRD9-HiBiT) cells. The arrangement: endogenously expressing BRD9 with HiBiT fusion tag via CRISPR; host or cells: 293T.166 (BRD9-HiBiT), also expressing LgBiT ectopically. It counts as cell-based. The following applies: 293T.166 cells, 2.0 hours, class symbols, read-out: HiBiT-Degradation 293T.166 BRD9 2.0 hours (DC50). As to the method:
Selected compounds were tested in a BRD9 degradation assay using the HiBit Method.
Dulbecco's modified Eagle medium (DMEM) without phenol red and fetal bovine serum (FBS) were purchased from Gibco (Grand Island, N.Y., USA). Nano-Glo® HiBiT Lytic Assay System was purchased from Promega (Madison, Wis., USA). 293T.166 (BRD9-HiBiT) cell line, endogenously expressing BRD9 with HiBiT fusion tag via CRISPR and ectopically expressing LgBiT tag, was purchased from Promega (Madison, Wis., USA). 293T.167 (BRD7-HiBiT) cell line, endogenously expressing BRD7 with HiBiT fusion tag via CRISPR and ectopically expressing LgBiT tag, was purchased from Promega (Madison, Wis., USA). 293T.92 (BRD4-HiBiT) cell line, endogenously expressing BRD4 with HiBiT fusion tag via CRISPR and ectopically expressing LgBiT tag, was generated in-house. Cell culture flasks and 384-well microplates were acquired from VWR (Radnor, Pa., USA).
BRD9 degradation was determined based on quantification of luminescent signal using Nano-Glo® HiBiT Lytic Assay kit. Test compounds were added to the 384-well plate from a top concentration of 10 μM with 11 points, half log titration in duplicates. 293T.166 cells were added into 384-well plates at a cell density of 10,000 cells per well. The plates were kept at 37° C. with 5% CO2 for 2 hours. BRD7 and BRD4 degradation was similarly determined with 293T.167 cells and 293T.92 cells, respectively. The cells treated in the absence of the test compound were the negative control and the cells without Nano-Glo® HiBiT Lytic reagent were the positive control. After 2-hour incubation, Nano-Glo® HiBiT Lytic Assay reagents were added to the cells. Luminescence was acquired on EnVision™ Multilabel Reader (PerkinElmer, Santa Clara, Calif., USA).

Where two headings read alike, the source gives them in different places.

One may read the DC50 as the midpoint of the concentration-degradation curve. Take `COc1cc(-c2cn(C)c(=O)c3[nH]ncc23)cc(OC)c1CN1CCC(NC(=O)CN2CCC(c3ccc(NC4CCC(=O)NC4=O)cc3)CC2)CC1` (centres unmarked) [Compound 6]: the DC50 (Table 1) is under 0.1 µM. Consider `COc1cc(-c2cn(C)c(=O)c3[nH]ncc23)cc(OC)c1CN1CCN(C(=O)Cc2ccc(NC3CCC(=O)NC3=O)cc2F)CC1` (centres unmarked) [Compound 41, 3-[4-[2-[4-[[2,6-dimethoxy-4-(6-methyl-7-oxo-1H-pyrazolo[3,4-c]pyridin-4-yl)phenyl]methyl]piperazin-1-yl]-2-oxo-ethyl]-3-fluoro-anilino]piperidine-2,6-dione], for which the half-maximal degradation concentration (DC50) (Table 1) is under 0.1 µM.

For the molecule `COc1cc(-c2cn(C)c(=O)c3cnccc23)cc(Cl)c1CN1CCC(N2CCN(c3ccc(NC4CCC(=O)NC4=O)cc3F)CC2)C(F)(F)C1` (single isomer, unassigned) [Compound 179, 3-[4-[4-[1-[[2-chloro-6-methoxy-4-(2-methyl-1-oxo-2,7-naphthyridin-4-yl)phenyl]methyl]-3,3-difluoro-4-piperidyl]piperazin-1-yl]-3-fluoro-anilino]piperidine-2,6-dione], for the setting “Table 1”, the DC50 is under 0.1 µM. On to `COc1cc(-c2cn(C)c(=O)c3[nH]ncc23)cc(OC)c1CN1CCN(C(=O)CN2CCC(c3c(F)cc(NC4CCC(=O)NC4=O)cc3F)CC2)CC1` (centres unmarked) [Compound 17], for which the half-maximal degradation concentration (DC50) (Table 1) is under 0.1 µM. With `COc1cc(-c2cn(C)c(=O)c3cnccc23)cc(Cl)c1C(=O)N1CCc2c(CC3CCN(c4ccc(NC5CCC(=O)NC5=O)cc4F)CC3)cccc2C1` (centres unmarked) [Compound 235], the DC50 (Table 1) is under 0.1 µM. On to `C/C=C/Cn1cc(-c2cc(OC)c(CN3CCC(N4CCN(c5ccc(NC6CCC(=O)NC6=O)cc5F)CC4)C(F)(F)C3)c(OC)c2)c(C)c(C)c1=O` (centres unmarked) [Compound 265, 3-[4-[4-[1-[[4-[1-[(E)-but-2-enyl]-4,5-dimethyl-6-oxo-3-pyridyl]-2,6-dimethoxy-phenyl]methyl]-3,3-difluoro-4-piperidyl]piperazin-1-yl]-3-fluoro-anilino]piperidine-2,6-dione], for which the DC50 (Table 2) was under 0.1 µM. In the case of `[2H]C([2H])([2H])n1cc(-c2ccc(CN3CCC(C4CCN(c5ccc(NC6CCC(=O)NC6=O)cc5F)CC4)CC3)c(OC(F)(F)F)c2)c2ccncc2c1=O` (centres unmarked) [Compound 252, 3-[3-fluoro-4-[4-[1-[[4-[1-oxo-2-(trideuteriomethyl)-2,7-naphthyridin-4-yl]-2-(trifluoromethoxy)phenyl]methyl]-4-piperidyl]-1-piperidyl]anilino]piperidine-2,6-dione], the DC50 (Table 2) is under 0.1 µM.

For `COc1cc(-c2cn(C)c(=O)c3ccccc23)cc(OC)c1CN1C2CCC1CN(C(=O)CC1CCN(c3ccc(NC4CCC(=O)NC4=O)cc3C(F)(F)F)CC1)C2` (centres unmarked) [Compound 64], under “Table 1”, the DC50 was under 0.1 µM. Same read-out and setting: then `COc1cc(-c2cn(C)c(=O)c3cnccc23)cc(Cl)c1CN1CCc2c(CC3CCN(c4ccc(NC5CCC(=O)NC5=O)cc4F)CC3)cccc2C1` (centres unmarked) [Compound 107], with under 0.1 µM. On the same count and under the same terms, then `COc1cc(-c2cn(C)c(=O)c(C)c2C)cc(Cl)c1C=C1CCN(C(=O)CC2CCN(c3ccc(NC4CCC(=O)NC4=O)cc3F)CC2)CC1` (centres unmarked) [Compound 163], with under 0.1 µM; and `COc1cc(-c2cn(C)c(=O)c3cnccc23)cc(OC)c1CN1CCN(C(=O)CC2CCN(c3ccc(NC4CCC(=O)NC4=O)cc3C(F)(F)F)CC2)CC1` (single isomer, unassigned) [Compound 56], with under 0.1 µM; and `COc1cc(-c2cn(C)c(=O)c(C)c2C)cc(OC)c1CN1CCN(C(=O)CC2CCN(c3ccc(NC4CCC(=O)NC4=O)cc3C(F)(F)F)CC2)CC12CC2` (centres unmarked) [Compound 60], with under 0.1 µM.

Consider `Cc1c(-c2ccc(C(=O)N3CCC(C4CCN(c5ccc(NC6CCC(=O)NC6=O)cc5F)CC4)CC3)c(OC(F)(F)F)c2)cn(C)c(=O)c1C` (centres unmarked) [Compound 212, 3-[3-fluoro-4-[4-[1-[2-(trifluoromethoxy)-4-(1,4,5-trimethyl-6-oxo-3-pyridyl)benzoyl]-4-piperidyl]-1-piperidyl]anilino]piperidine-2,6-dione], for which the DC50 (Table 1) is under 0.1 µM.

In the case of `COc1cc(-c2cn(C)c(=O)c3[nH]ncc23)cc(OC)c1CN1CCc2c(CC3CCN(c4ccc(NC5CCC(=O)NC5=O)cc4F)CC3)cccc2C1` (centres unmarked) [Compound 106], the 50% degradation concentration (DC50) (Table 1) was under 0.1 µM. The same measure, in the same setting: then `COc1cc(-c2cn(C)c(=O)c3[nH]ncc23)cc(OC)c1CN1CCN(C(=O)CN2CCC(c3ccc(OC4CCC(=O)NC4=O)cc3)CC2)CC1` (centres unmarked) [Compound 21], with under 0.1 µM; and `COc1cc(-c2cn(C)c(=O)c3[nH]ncc23)cc(OC)c1CNC1CN(CC(=O)N2CCC(c3ccc(NC4CCC(=O)NC4=O)cc3)CC2)C1` (centres unmarked) [Compound 38], with 0.1 to 0.5 µM. `COc1cc(-c2cn(C)c(=O)c(C)c2C)cc(Cl)c1CN1CCC(C2CCN(c3ccc(NC4CCC(=O)NC4=O)nc3)CC2)C(F)(F)C1` (centres unmarked) [Compound 273]: where the note is “Table 2”, the DC50 was under 0.1 µM.

As for `COc1cc(-c2cn(C)c(=O)c3ccccc23)cc(F)c1CN1CCC(N(C)C(=O)N2CCC(c3ccc(NC4CCC(=O)NC4=O)cc3)CC2)CC1` (centres unmarked) [Compound 119], the DC50 (Table 1) is under 0.1 µM. For the molecule `COc1cc(-c2cn(C)c(=O)c(C)c2C)cc(OC)c1C=C1CCN(C(=O)CC2CCN(c3ccc(NC4CCC(=O)NC4=O)cc3F)CC2)CC1` (centres unmarked) [Compound 162], the DC50 (Table 1) was under 0.1 µM. With `COc1cc(-c2cn(C)c(=O)c3[nH]ncc23)cc(OC)c1CN1CCN(C(=O)CN2CCC(c3ccc(C4CCC(=O)NC4=O)cc3)CC2)CC1` (centres unmarked) [Compound 16], for the setting “Table 1”, the DC50 is under 0.1 µM. Same read-out and setting: the result for `COc1cc(-c2cn(C)c(=O)c3[nH]ncc23)cc(F)c1CN1CCC(CCC2CCN(c3ccc(NC4CCC(=O)NC4=O)cc3)CC2)CC1` (centres unmarked) [Compound 147, 3-[4-[4-[2-[1-[[2-fluoro-6-methoxy-4-(6-methyl-7-oxo-1H-pyrazolo[3,4-c]pyridin-4-yl)phenyl]methyl]-4-piperidyl]ethyl]-1-piperidyl]anilino]piperidine-2,6-dione] reads under 0.1 µM. As for `COc1cc(-c2cn(C)c(=O)c(C)c2C)cc(OC)c1CN1CCC(N2CCN(c3ccc(NC4CCC(=O)NC4=O)nc3)CC2)C(F)(F)C1` (centres unmarked) [Compound 195], where the note is “Table 1”, the DC50 is under 0.1 µM.

Turning to `COc1cc(-c2cn(C)c(=O)c3cnccc23)cc(Cl)c1C(=O)N1CCC(C2CCN(c3ccc(NC4CCC(=O)NC4=O)cc3F)CC2)CC1` (centres unmarked) [Compound 209], where the note is “Table 1”, the DC50 was under 0.1 µM. Same read-out and setting: the result for `COc1cc(-c2cn(C)c(=O)c3[nH]ncc23)cc(OC)c1CN1CCN(CCCC(=O)N2CCC(c3ccc(NC4CCC(=O)NC4=O)cc3)CC2)CC1` (centres unmarked) [Compound 40] reads under 0.1 µM. For the molecule `COc1cc(-c2cn(C)c(=O)c3ccccc23)cc(Cl)c1CN1CCC(N(C)C(=O)N2CCC(c3ccc(NC4CCC(=O)NC4=O)cc3)CC2)CC1` (centres unmarked) [Compound 121], the DC50 (Table 1) was under 0.1 µM.

Consider `COc1cc(CN2CCN(C(=O)CN3CCC(c4ccc(NC5CCC(=O)NC5=O)cc4)CC3)CC2)c(OCC(F)F)cc1-c1cn(C)c(=O)c2[nH]ncc12` (centres unmarked) [Compound 25], for which, where the note is “Table 1”, the 50% degradation concentration (DC50) is under 0.1 µM. Still for that read-out and setting: the result for `Cn1cc(-c2ccc(CN3CCN(C(=O)CC4CCN(c5ccc(NC6CCC(=O)NC6=O)cc5)CC4)CC3)c(OC(F)(F)F)c2)c2cn[nH]c2c1=O` (centres unmarked) [Compound 51] reads under 0.1 µM. The same measure, in the same setting: then `COc1cc(-c2cn(C)c(=O)c3[nH]ncc23)cc(Cl)c1CN1CCC(C2CCN(c3ccc(NC4CCC(=O)NC4=O)cc3Cl)CC2)CC1` (centres unmarked) [Compound 75], with under 0.1 µM; and `COc1cc(-c2cn(C)c(=O)c3[nH]ncc23)cc(Cl)c1CN1CCN(C(=O)CC2CCN(c3ccc(NC4CCC(=O)NC4=O)cc3C(F)(F)F)CC2)CC1` (centres unmarked) [Compound 53], with under 0.1 µM.
